# According to patent publication US20230364051A1, “FORMULATIONS AND METHODS FOR IMPROVING AVIAN HEALTH” (CORNELL UNIVERSITY, priority 2022, published 2023):
# Marks after values point to notes of the source that are not given here.
# Legend:
# [1] = system: BBM Fe-related proteins and intestinal bacterial populations; settings: in vivo; cited from earlier work
# [2] = Blood hemoglobin (QuantiChrom Hemoglobin Assay) at hatch after intraamniotic administration; assay type: in vivo, Gallus gallus; settings: 5 wt. % inulin intraamniotic, day 17; blood at hatch
# Description: (§1) Cornish-cross fertile broiler eggs (Gallus gallus, n = 39) were obtained from a commercial hatchery (Moyer’s chicks, Quakertown, PA, USA). The eggs were incubated under optimal conditions at the Cornell University Animal Science Poultry Farm Incubator [18]. […] Each group was then injected with the specific solution (1 mL per egg) with a 21-gauge needle into the amniotic fluid. Treatments in powder form were separately diluted in DI H2O. […] After injection, the injection holes were sealed with cellophane tape and the eggs were placed in hatching baskets such that each treatment was equally represented at each incubator location. Immediately upon hatch (day 21), blood was taken for hemoglobin determination and all chicks were then euthanized by CO2 exposure. The small intestine, pectoral muscle, cecum, and liver were collected, immediately frozen in liquid nitrogen, and then stored in a -80° C. freezer until analysis.
# Blood was collected using micro-hematocrit heparinized capillary tubes (Fisher Scientific, Waltham, MA, USA). Blood Hb concentrations were determined spectrophotometrically using the QuantiChromTM Hemoglobin Assay (DIHB-250, BioAssay Systems, Hayward, CA, USA) following the kit manufacturer’s instructions.
# [3] = Body weight and cecum weight at hatch after intraamniotic administration; assay type: in vivo, Gallus gallus
# Description: (§2) Cornish-cross fertile broiler eggs (Gallus gallus, n = 39) were obtained from a commercial hatchery (Moyer’s chicks, Quakertown, PA, USA). The eggs were incubated under optimal conditions at the Cornell University Animal Science Poultry Farm Incubator [18]. All animal protocols were approved by Cornell University Institutional Animal Care and Use committee (IACUC #2020-0077). At day 17 of embryonic incubation, eggs containing viable embryos were weighed and divided into 5 groups, with all treatment groups assigned eggs of similar weight frequency distribution. Each group was then injected with the specific solution (1 mL per egg) with a 21-gauge needle into the amniotic fluid. Treatments in powder form were separately diluted in DI H2O. Two treatment groups (1.25, 2.5 wt. %), two controls (H2O and non-injected), and a positive control (5 wt. % inulin) were administered. After injection, the injection holes were sealed with cellophane tape and the eggs were placed in hatching baskets such that each treatment was equally represented at each incubator location. Immediately upon hatch (day 21), blood was taken for hemoglobin determination and all chicks were then euthanized by CO2 exposure. The small intestine, pectoral muscle, cecum, and liver were collected, immediately frozen in liquid nitrogen, and then stored in a -80° C. freezer until analysis.
# [4] = system: L. plantarum; assay: Duodenal bacterial populations by PCR of 16S rDNA: L. plantarum; assay type: in vivo, Gallus gallus; settings: 5 wt. % inulin vs H2O injected control, p < 0.05; duodenum, day of hatch
# Description: as §2, with “Immediately upon hatch (day 21), blood was taken for hemoglobin determination and all chicks were then euthanized by CO2 exposure. The small intestine, pectoral muscle, cecum, and liver were collected, immediately frozen in liquid nitrogen, and then stored in a -80° C. freezer until analysis.” left out
# (§3) Primers for Lactobacillus, Bifidobacterium, L. Plantarum, Clostridium, and E. coli were designed according to previously published data. […] PCR products were separated by electrophoresis on 2 wt. % agarose gel, stained with ethidium bromide, and quantified using the Quantity One 1-D analysis software (BioRad, Hercules, CA, USA).
# [5] = system: duodenum; assay: Duodenal tissue morphology examination (villi, crypts, goblet cells, Paneth cells); assay type: in vivo, Gallus gallus; settings: 5 wt. % inulin intraamniotic, day 17; duodenum at hatch
# Description: as §1
# Intestinal morphology examination was performed as was previously described. Duodenum samples were fixed in fresh 4 wt. % (v/v) buffered formaldehyde, dehydrated, cleared, and embedded in paraffin. Serial sections were cut at 5 µm and placed on glass slides. Intestinal sections were deparaffinized in xylene, rehydrated in a graded alcohol series, stained with Alcian Blue/Periodic acid-Schiff, and examined by light microscopy. The following variables were measured in the intestine: villus height, villus width, crypt depth, Paneth cell number per crypt, Paneth cell width, goblet cell number, goblet cell diameter, types of goblet cells in the villi epithelium, and types of goblet cells within the crypts. Measurements in each segment were performed with a light microscope using CellSens Standard software (Olympus, Waltham, MA, USA).
# [6] = Pectoral muscle glycogen analysis after intraamniotic administration; assay type: in vivo, Gallus gallus; settings: 5 wt. % inulin intraamniotic, day 17; pectoral muscle at hatch
# Description: as §2
# Glycogen analysis was obtained from pectoralis muscle as previously described. Briefly, the frozen pectoral muscle samples were homogenized in 8 wt. % perchloric acid. Samples were then centrifuged at 12,000 × g for 15 minutes. The supernatant was removed, and 1.0 mL of petroleum ether was added to each tube. After mixing, the petroleum ether fraction was removed and samples from the bottom layer were transferred to a 96-well plate containing 300 µL of color reagent. All samples were read at a wavelength of 450 nm in an ELISA reader and the amount of glycogen was calculated according to a standard curve. The amount of glycogen present in pectoral sample was determined by multiplying the weight of the tissue by the amount of glycogen per 1 g of wet tissue.
# [7] = system: Clostridium spp.; assay: Duodenal bacterial populations by PCR of 16S rDNA: Clostridium; assay type: in vivo, Gallus gallus; settings: 5 wt. % inulin vs no injection and H2O injection controls, p < 0.05; duodenum, day of hatch
# Description: as §2, with “Immediately upon hatch (day 21), blood was taken for hemoglobin determination and all chicks were then euthanized by CO2 exposure. The small intestine, pectoral muscle, cecum, and liver were collected, immediately frozen in liquid nitrogen, and then stored in a -80° C. freezer until analysis.” left out
# as §3
# [8] = 5 wt. % inulin intraamniotic, day 17, at hatch
compound,measurement,setting,value
O=c1c(-c2ccc(O)cc2)coc2cc(O)ccc12 [daidzein],Expression of BBM Fe-related proteins and intestinal bacterial populations,[1],affected
inulin [reference compound],Average Hb,[2],9.56 ± 0.92 ^c g/dL
same,Average Body Weight,[3]; [8],46.04 ± 1.18 ^ab g
same,Average Cecum Weight,[3]; [8],0.43 ± 0.05 ^b g
same,Cecum weight of no injection and H2O groups compared to treated group,"[3]; 5 wt. % inulin, p < 0.05",significantly greater values
same,Relative abundance of L. plantarum,[4],significantly increased
same,# Crypt Paneth Cells,[5],2.56 ± 0.09 ^c
same,Crypt Depth,[5],35.00 ± 0.43 ^b µm
same,Crypt Goblet Cell Diameter,[5],2.51 ± 0.02 ^c µm
same,Crypt Goblet Cell Number Acidic,[5],7.97 ± 0.16 ^b Unit
same,Crypt Goblet Cell Number Mixture,[5],1.19 ± 0.08 ^c Unit
same,Crypt Goblet Cell Number Neutral,[5],0.00 ± 0.00 ^a Unit
same,Crypt Goblet Cell Number Total,[5],9.15 ± 0.16 ^b Unit
same,Crypt Paneth cell Diameter,[5],1.68 ± 0.03 ^b µm
same,Villi Goblet Cell Diameter,[5],2.74 ± 0.03 ^e µm
same,Villi Goblet Cell Number Acidic,[5],16.39 ± 0.54 ^c Unit
same,Villi Goblet Cell Number Mixture,[5],6.53 ± 0.30 ^a Unit
same,Villi Goblet Cell Number Neutral,[5],0.10 ± 0.02 ^b Unit
same,Villi Goblet Cell Number Total,[5],23.02 ± 0.60 ^b Unit
same,Villus Height,[5],246.64 ± 5.14 ^a µm
same,Villus Surface Area,[5],206.92 ± 6.37 ^a mm2
same,Villus Width,[5],50.98 ± 1.03 ^a µm
same,Average Glycogen,[6],0.002 ± 0.001 ^b mg/g
same,Relative abundance of Clostridium spp.,[7],significantly increased
